Data on one compound can be found in patent US20150374709A1, “TETRA-SUBSTITUTED NDGA DERIVATIVES VIA ETHER BONDS AND CARBAMATE BONDS AND THEIR SYNTHESIS AND PHARMACEUTICAL USE” (ERIMOS PHARMACEUTICALS LLC, priority 2006, published 2015).

The subject of experiment [1] is Colon Cancer cell lines. Briefly: NCI DTP human tumor cell line screen, colon cancer panel. Type of experiment: cell-based. The settings on record: Colon Cancer (7 cell lines). The source says: The United States National Cancer Institute (NCI) provides a developmental therapeutics program (DTP) (http://dtp.nci.nih.gov/branches/btb/ivelsp.html) to screen submitted substances in support of cancer drug discovery. The In Vitro Cell Line Screening Project (IVCLSP) is a dedicated service providing direct support to the DTP anticancer drug discovery program and is designed to screen up to 3,000 compounds per year for potential anticancer activity. The operation of this screen utilizes 60 different human tumor cell lines, representing leukemia, melanoma and cancers of the lung, colon, brain, ovary, breast, prostate, and kidney. The aim is to prioritize for farther evaluation, synthetic compounds or natural product samples showing selective growth inhibition or cell killing of particular tumor cell lines. This screen is unique in that the complexity of a 60 cell line dose response produced by a given compound results in a biological response pattern which can be utilized in pattern recognition algorithms (COMPARE program. See: http://dtp.nci.nih.gov/docs/compare/compare.html). Using these algorithms, it is possible to assign a putative mechanism of action to a test compound, or to determine that the response pattern is unique and not similar to that of any of the standard prototype compounds included in the NCI database. […]

The test system of experiment [2] is TAT-mediated transactivation of HIV transcription (HIV-1 LTR promoter). The experiment is described as follows: SEAP assay of TAT-mediated transactivation (antiviral activity). The settings on record: Human immunodeficiency virus 1, COS-7, 48 h, read-out: SEAP EC50. The class given is cell-based, human immunodeficiency virus (HIV). Here is the method: Antiviral activity is determined using a SEAP (SEcreted Alkaline Phosphatase) assay, in which cells are co-transfected with SEAP and TAT plasmids. TAT is a transactivator, human immunodeficiency virus (HIV) gene expression and is one of the two or more necessary viral regulatory factors (TAT and REV) for HIV gene expression. TAT acts iv binding to the TAR RNA element and activating transcription from the long terminal repeat (LTR) promoter. […] Previous studies have shown that TAT mediates reduction of antibody-dependent T cell proliferation, contributing substantially to the failure of the immune response. TAT also directly stimulates Kaposi's cell growth.
Since TAT has no apparent cellular homologs, this strong positive regulator has become an attractive target for the development of anti-AIDS drugs. In contrast to currently available HIV reverse transcriptase inhibitors (AZT, DDI) or potential protease inhibitors that prevent new rounds of infection, an inhibitor which suppresses viral gene TAT regulated expression of integrated proviral DNA will arrest the virus at an early stage (Hsu et al., Science 254:1799-1802, 1991). Efforts aimed at the elucidation of factors which control gene expression at transcriptional and post-transcriptional levels in host eukaryotes have recently made possible quantitative assessment of TAT function (Sim, Ann. N.Y. Acad. Sci. 616: 64-70, 1990). To screen for inhibitors for TAT regulated transactivation (TAT-TRS), the SEAP reporter gene is put under the control of HIV-1 LTR promoter in the plasmid pBC12/HIV/SEAP. The TAT-coded activity is supplied by a second plasmid construct pBC12/CMV/t2. Transient co-transfection of COS-7 cells with these two plasmids leads to secretion of alkaline phosphatase into the culture medium which is analyzed by a simple colorimetric assay (Berger et al., Gene 66: 1-10, 1988). […]
In the SEAP assay, an inhibitor should cause reduction of SEAP reporter gene expression via transactivation of the HIV-1 LTR promoter by TAT protein (TAT-TRS). […] SEAP is detected colorimetrically by the para-nitrophenyl phosphate substrate at 405 nm. […] The cells are analyzed by the MTT assay to compare cytotoxicity to SEAP inhibition. […]
COS-7 (green monkey kidney) cells were co-transfected using Fugene 6 reagent (Roche Applied Science, Cat. No. 11815091001, Indianapolis, Ind., USA) with two plasmids: pHIVSEAP (SEAP expression vector under the control of the HIV LTR promoter) and pCTAT (HIV TAT transcription factor expression vector under the control of a CMV (cytomegalovirus) promoter). After test compound treatment for 48 hours, samples were analyzed for […] at 405 nm after addition of the p-nitrophenyl phosphate substrate. The percentage of SEAP activity inhibition was calculated in relation to the placebo control.

In general, EC50 refers to the concentration that produces a half-maximal response. As to `C[C@H](Cc1ccc(OCCCN2CCCCC2)c(OCCCN2CCCCC2)c1)[C@@H](C)Cc1ccc(OCCCN2CCCCC2)c(OCCCN2CCCCC2)c1` [Compound A, 1,4-bis{3,4-bis[3-(piperidin-1-yl)propoxy]phenyl}-2,3-dimethyl-(2R,3S)-butane], the “Mean Growth Percent at 10 μM” value in experiment [1] was −94.08%. In addition, the EC50 in experiment [2] is 0.5 to 1 µM.
